Measured values as given in patent publication US6653306B1, “Epoxy-steroidal aldosterone antagonist and angiotensin II antagonist combination therapy” (G.D. Searle & Co., priority 1995, dated 2003).

How the values were obtained:
rabbit aortic rings = experiment: Assay B: In vitro vascular smooth muscle response for AII (antagonist activity, pA2); assay type: cell-based; settings: Oryctolagus cuniculus, in vitro vascular smooth muscle response; two values per cell separated by / are separate determinations; read-out: Assay B pA2 (converted)
Method: Assay B: In Vitro Vascular Smooth Muscle-response for AII
The compounds of the invention were tested for antagonist activity in rabbit aortic rings. Male New Zealand white rabbits (2-2.5 kg) were sacrificed using an overdose of pentobarbital and exsanguinated via the carotid arteries. The thoracic aorta was removed, cleaned of adherent fat and connective tissue and then cut into 3-mm ring segments. The endothelium was removed from the rings by gently sliding a rolled-up piece of filter paper into the vessel lumen. The rings were then mounted in a water-jacketed tissue bath, maintained at 37° C., between moveable and fixed ends of a stainless steel wire with the moveable end attached to an FT03 Grass transducer coupled to a Model 7D Grass Polygraph for recording isometric force responses. The bath was filled with 20 ml of oxygenated (95% oxygen/5% carbon dioxide) Krebs solution of the following composition (mM): 130 NaCl, […], 15 KCl, 1.2 NaH2PO4, 1.2 MgSO4, 2.5 CaCl2, and 11.4 glucose. The preparations were equilibrated for one hour before approximately one gram of passive tension was placed on the rings. Angiotensin II concentration-response curves were then recorded (3×10^−10 to 1×10^−5 M). Each concentration of AII was allowed to elicit its maximal contraction, and then AII was washed out repeatedly for 30 minutes before rechallenging with a higher concentration of AII. Aorta rings were exposed to the test antagonist at […] for 5 minutes before challenging with AII. Adjacent segments of the same aorta ring were used for all concentration-response curves in the presence or absence of the test antagonist. The effectiveness of the test compound was expressed in terms of pA2 values and were calculated according to H. O. Schild [Br. J. Pharmacol, Chemother., 2,189-206 (1947)]. The pA2 value is the concentration of the antagonist which increases the EC50 value for AII by a factor of two. Each test antagonist was evaluated in aorta rings from two rabbits.

[1] = target: angiotensin II AT1 receptor; experiment: Assay A: Angiotensin II binding activity (125I-AII displacement, rat uterine membrane preparation)
Method: Assay A: Antiotensin II Binding Activity
Compounds of the invention were tested for ability to bind to the smooth muscle angiotensin II receptor using a rat uterine membrane preparation. […] Rat uterine membranes were prepared from fresh tissue. All procedures were carried out at 4° C. Uteri were stripped of fat and homogenized in phosphate-buffered saline at pH 7.4 containing 5 mM EDTA. The homogenate was centrifuged at 1500×g for 20 min., and the supernatant was recentrifuged at 100,000×g for 60 min. The pellet was resuspended in buffer consisting of 2 mM EDTA and 50 mM Tris-HCl (pH 7.5) to a final protein concentration of 4 mg/ml. […] The reaction was initiated by the addition of membrane protein and the mixture was incubated at 25° C. for 60 min. The incubation was terminated with ice-cold 50 mM Tris-HCl (pH 7.5) and the mixture was filtered to separate membrane-bound labelled peptide from the free ligand. The incubation tube and filter were washed with ice-cold buffer. Filters were assayed for radioactivity in a Micromedic gamma counter.
Nonspecific binding was defined as binding in the presence of 10 μM of unlabelled AII. Specific binding was calculated as total binding minus nonspecific binding. […] Binding data were analyzed by a nonlinear least-squares curve fitting program.

pressor response to AII = experiment: Assay C: In vivo intragastric pressor assay response for AII antagonists; parameters: species or system rat; settings: dose 3 mg/kg, intragastric, or intraduodenal for examples listed; for inhibition at 3 mg/kg: Rattus norvegicus
Method: Assay C: In Vivo Intragastric Pressor Assay Response for AII Antagonists
Male Sprague-Dawley rats weighing 225-300 grams were anesthetized with methohexital (30 mg/kg, i.p.) and catheters were implanted into the femoral artery and vein. The catheters were tunneled subcutaneously to exit dorsally, posterior to the head and between the scapulae. The catheters were filled with heparin (1000 units/ml of saline). The rats were returned to their cage and allowed regular rat chow and water ad libitum. After full recovery from surgery (3-4 days), rats were placed in Lucite holders and the arterial line was connected to a pressure transducer. Arterial pressure was recorded on a Gould polygraph (mmHg). Angiotensin II was administered as a 30 ng/kg bolus via the venous catheter delivered in a 50 μl volume with a 0.2 ml saline flush. The pressor response in mm Hg was measured by the differer.-:e from pre-injection arterial pressure to the maximum pressure achieved. The AII injection was repeated every 10 minutes until three consecutive injections yielded responses within 4 mmHg of each other. These three responses were then averaged and represented the control response to AII. The test compound was suspended in 0.5% methylcellulose in water and was administered by gavage. The volume administered was 2 ml/kg body weight. The standard dose was 3 mg/kg. Angiotensin II bolus injections were given at 30, 45, 60, 75, 120, 150, and 180 minutes after gavage. The pressor response to AII was measured at each time point. The rats were then returned to their cage for future testing. A minimum of 3 days was allowed between tests. Percent inhibition was calculated for each time point following gavage by the following formula:
[(Control Response—Response at time point)/Control Response]×100.

Structure (SMILES) | Kb (rabbit aortic rings) | IC50 [1] | inhibition at 3 mg/kg (pressor response to AII) | Assay C Duration (pressor response to AII)
CCCc1nc(CCC)n(Cc2ccc(-c3ccccc3-c3nnn[nH]3)cc2)n1 [Compound 12] | 0.00219 µM | 0.006 µM |  | 
CCCCCc1nc(CCCCC)n(Cc2ccc(-c3ccccc3-c3nnn[nH]3)cc2)n1 [Compound 13] | 0.002 µM |  |  | 
CCCCc1nc(CCC)nn1Cc1ccc(-c2ccccc2-c2nnn[nH]2)cc1 [Compound 14] | 0.00145 µM | 0.0072 µM |  | 
CCCCc1nc(CCC)n(Cc2ccc(-c3ccccc3-c3nnn[nH]3)cc2)n1 [Compound 15] | 0.0049 µM | 0.016 µM |  | 
CCCCc1nc(CCC(C)C)n(Cc2ccc(-c3ccccc3-c3nnn[nH]3)cc2)n1 [Compound 16] | 0.00112 µM | 0.0064 µM |  | 
CCCCc1nc(CCC(C)C)nn1Cc1ccc(-c2ccccc2-c2nnn[nH]2)cc1 [Compound 17] | 0.00229 µM | 0.004 µM |  | 
CCCCc1ncnn1Cc1ccc(-c2ccccc2C(=O)O)cc1 [Compound 18] | 0.724 µM | 0.97 µM |  | 
CCCCc1ncn(Cc2ccc(-c3ccccc3C(=O)O)cc2)n1 [Compound 19] | 6.61 µM | 12 µM |  | 
CCCCc1nc(-c2ccccc2)n(Cc2ccc(-c3ccccc3-c3nnn[nH]3)cc2)n1 [Compound 22] | 0.251 µM | 0.46 µM |  | 
CCCCc1nc(C(OC)OC)nn1Cc1ccc(-c2ccccc2-c2nnn[nH]2)cc1 [Compound 24] | 0.0275 µM | 0.01 µM |  | 
CCCCc1nc(CCc2ccccc2)n(Cc2ccc(-c3ccccc3-c3nnn[nH]3)cc2)n1 [Compound 25] | 0.158 µM | 0.48 µM |  | 
CCCCc1nc(CNC(=O)OC(C)(C)C)nn1Cc1ccc(-c2ccccc2-c2nnn[nH]2)cc1 [Compound 35] | 0.0562 µM | 0.041 µM |  | 
CCCCc1nc(CN)n(Cc2ccc(-c3ccccc3-c3nnn[nH]3)cc2)n1 [Compound 36] | 1.2 µM | 1.4 µM |  | 
CCCCc1nc(CC(OCC)OCC)n(Cc2ccc(-c3ccccc3-c3nnn[nH]3)cc2)n1 [Compound 37] | 0.126 µM | 0.34 µM |  | 
CCCCc1nc(CC)nn1Cc1ccc(-c2ccccc2-c2nnn[nH]2)cc1 [Compound 39] | 0.0132 µM | 0.01 µM |  | 
CCCCc1nc(CNC(=O)CCC(NC(C)=O)C(=O)OC(C)(C)C)nn1Cc1ccc(-c2ccccc2-c2nnn[nH]2)cc1 (stereo not shown) [Compound 41] | 2.09 µM | 3.7 µM |  | 
CCCCc1nc(CCC2CCCCC2)n(Cc2ccc(-c3ccccc3-c3nnn[nH]3)cc2)n1 [Compound 42] | 0.275 µM | 0.37 µM |  | 
CCCCc1nc(CCCO)nn1Cc1ccc(-c2ccccc2-c2nnn[nH]2)cc1 [Compound 45] | 0.00389 µM | 0.0044 µM |  | 
CCCCc1nc(CCCO)n(Cc2ccc(-c3ccccc3-c3nnn[nH]3)cc2)n1 [Compound 46] | 0.158 µM | 0.11 µM |  | 
CCCCc1nc(C(F)F)nn1Cc1ccc(-c2ccccc2-c2nnn[nH]2)cc1 [Compound 47] | 0.0141 µM | 0.021 µM |  | 
CCCCc1nc(C=O)nn1Cc1ccc(-c2ccccc2-c2nnn[nH]2)cc1 [Compound 49] | 0.0871 µM | 0.12 µM |  | 

Structure (SMILES) | Kb (rabbit aortic rings) | IC50 [1] | inhibition at 3 mg/kg (pressor response to AII) | Assay C Duration (pressor response to AII)
CCCCc1nc2c(O)nnc(CCC)c2n1Cc1ccc(-c2ccccc2-c2nn[nH]n2)cc1 [Compound 114] | 0.398 µM |  |  | 
CCCCc1nc2c(O)nncc2n1Cc1ccc(-c2ccccc2-c2nnn[nH]2)cc1 [Compound 116] | 0.316 µM |  |  | 
CCCCc1nc2cnncc2n1Cc1ccc(-c2ccccc2-c2nnn[nH]2)cc1 [Compound 117] | 0.316 µM |  |  | 
CCCCc1cn(-c2c(Cl)cccc2Cl)c(=O)n1Cc1ccc(-c2ccccc2-c2nnn[nH]2)nc1 [Compound 221] |  | 0.0048 µM | 25% | >180 min
CCCCc1cn(CCCC)c(=O)n1Cc1ccc(-c2ccccc2-c2nnn[nH]2)cn1 [Compound 223] |  | 0.014 µM | 20% | >180 min
CCCCc1cn(-c2ccccc2CC)c(=O)n1Cc1ccc(-c2ccccc2-c2nnn[nH]2)nc1 [Compound 228] |  | 0.0045 µM | 80% | >180 min
CCCCc1cn(-c2ccccc2C(C)(C)C)c(=O)n1Cc1ccc(-c2ccccc2-c2nnn[nH]2)nc1 [Compound 229] |  | 0.019 µM | 40% | >180 min
CCCCc1cn(-c2c(OC)cccc2OC)c(=O)n1Cc1ccc(-c2ccccc2-c2nnn[nH]2)nc1 [Compound 230] |  | 0.0026 µM | 25% | >180 min
CCCCc1cn(-c2c(C)cccc2Cl)c(=O)n1Cc1ccc(-c2ccccc2-c2nnn[nH]2)nc1 [Compound 231] |  | 0.0036 µM | 75% | >180 min
CCCCc1cn(-c2c(C)cc(C)cc2C)c(=O)n1Cc1ccc(-c2ccccc2-c2nnn[nH]2)nc1 [Compound 232] |  | 0.0044 µM | 70% | >180 min
CCCCc1cn(-c2c(CC)cccc2CC)c(=O)n1Cc1ccc(-c2ccccc2-c2nnn[nH]2)nc1 [Compound 234] |  | 0.005 µM | 20% | 
CCCCc1cn([C@H]2[C@H](C)CCC[C@@H]2C)c(=O)n1Cc1ccc(-c2ccccc2-c2nnn[nH]2)nc1 [Compound 236] |  | 0.0049 µM | 70% | >180 min
CCCCc1cn(-c2cccn2CC)c(=O)n1Cc1ccc(-c2ccccc2-c2nnn[nH]2)nc1 [Compound 238] |  | 0.0017 µM | 15% | >180 min
CCCCc1nc(CC(C)(C)C)nn1Cc1ccc(-c2ccccc2-c2nnn[nH]2)nc1 [Compound 249] |  | 0.0044 µM | 20% | >180 min
CCCCc1nc(CC(C)(C)C)n(Cc2ccc(-c3ccccc3-c3nnn[nH]3)nc2)n1 [Compound 250] |  | 0.043 µM | 0% | 
CCCCc1nc(C(=O)N(C)C(C)(C)C)n(Cc2ccc(-c3ccccc3-c3nnn[nH]3)nc2)n1 [Compound 256] |  | 0.0041 µM | 30% | >180 min
CCCCc1nc(-c2ccccc2Cl)nn1Cc1ccc(-c2ccccc2-c2nnn[nH]2)nc1 [Compound 267] |  | 0.025 µM | 25% | >180 min
CCCCc1nc(-c2ccccc2Cl)n(Cc2ccc(-c3ccccc3-c3nnn[nH]3)nc2)n1 [Compound 268] |  | 0.52 µM | 0% | 
CCCCc1cn(-c2ccccc2CC)c(=O)n1Cc1ccc(-c2ccccc2-c2nnn[nH]2)cc1 [Compound 271] |  | 0.014 µM | 20% | 
CCCCc1cn(-c2ccccc2C(C)C)c(=O)n1Cc1ccc(-c2ccccc2-c2nnn[nH]2)cc1 [Compound 272] |  | 0.097 µM | 70% | >180 min
